Literature values as cited in patent publication US20090053769A1, “HETEROLOGOUS PRODUCTION OF NATURAL PRODUCTS IN BACTERIA” (University of Southern California, priority 2007, published 2009).
Positions of bridges follow the written chain, without caps; N, C: chain ends. Non-standard residues stand in square brackets, D forms with d. Residues, ends and D or L forms follow the SMILES beside them. Chains are numbered I, II in the order given. *: point of attachment. Quinoxaline2carbonyl = O=C(c1cnc2ccccc2n1)*; NMeV = CN[CH](C(=O)O)C(C)C; NMeC = CN[CH](CS)C(=O)O

Details: general statement on antibacterial, anticancer and antiviral activities, reference 24

In the case of `CS[C@H]1SC[C@H]2C(=O)N(C)[C@@H](C(C)C)C(=O)OC[C@@H](NC(=O)c3cnc4ccccc4n3)C(=O)N[C@@H](C)C(=O)N(C)[C@@H]1C(=O)N(C)[C@@H](C(C)C)C(=O)OC[C@@H](NC(=O)c1cnc3ccccc3n1)C(=O)N[C@@H](C)C(=O)N2C` [compound 1, echinomycin], the potency is listed as “nanomolar potency”.
In the case of `CC1NC(=O)C(NC(=O)c2cnc3ccccc3n2)COC(=O)C(C(C)C)N(C)C(=O)C2CSSCC(C(=O)N(C)C(C(C)C)C(=O)OCC(NC(=O)c3cnc4ccccc4n3)C(=O)NC(C)C(=O)N2C)N(C)C1=O` (centres unmarked) [compound 2, triostin A] (I: Quinoxaline2carbonyl-SA[NMeC][NMeV] / II: Quinoxaline2carbonyl-SA[NMeC][NMeV]; ester I:1-II:C, I:C-II:1; disulfide I:3-II:3; configuration not given here), the potency is listed as “nanomolar potency”.
